For the test, the system named is P388 leukemia ip, CD2F1 mice, survival T/C. As to the kind of experiment: NCI In Vivo Anticancer Drug Screen. Data for tumor model P388 Leukemia (intraperitoneal) in CD2F1 (CDF1) mice. The settings on record: endpoint: median survival time, higher = longer survival. Summed up: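 Mice carrying the transplanted tumor received test compound or vehicle. Survival was recorded in each group, and the value is the treated-group measurement divided by that of the vehicle-treated control group.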

Setting [1] is: dose: 50.0 mg/kg/injection, schedule: Q01DX009 (ip), vehicle: saline with Tween-80.
Where [2] appears, read: dose: 100.0 mg/kg/injection, schedule: Q01DX009 (ip), vehicle: saline with Tween-80.
Where [3] appears, read: dose: 200.0 mg/kg/injection, schedule: Q01DX009 (ip), vehicle: saline with Tween-80.
Where [4] appears, read: dose: 50.0 mg/kg/injection, schedule: Q01DX005 (ip), vehicle: saline with Tween-80.
The mark [5] stands for this setting: dose: 100.0 mg/kg/injection, schedule: Q01DX005 (ip), vehicle: saline with Tween-80.
Setting [6] is: dose: 200.0 mg/kg/injection, schedule: Q01DX005 (ip), vehicle: saline with Tween-80.
[7] abbreviates: dose: 50.0 mg/kg/injection, schedule: Q01DX009 (ip), vehicle: saline.
The mark [8] stands for this setting: dose: 60.0 mg/kg/injection, schedule: Q01DX005 (ip), vehicle: saline with Tween-80.
[9] abbreviates: dose: 120.0 mg/kg/injection, schedule: Q01DX005 (ip), vehicle: saline with Tween-80.
[10] abbreviates: dose: 240.0 mg/kg/injection, schedule: Q01DX005 (ip), vehicle: saline with Tween-80.
[11] abbreviates: dose: 25.0 mg/kg/injection, schedule: Q01DX009 (ip), vehicle: saline with Tween-80.
Where [12] appears, read: dose: 100.0 mg/kg/injection, schedule: Q04DX003 (ip), vehicle: saline with Tween-80.
Where [13] appears, read: dose: 200.0 mg/kg/injection, schedule: Q04DX003 (ip), vehicle: saline with Tween-80.

Several values for one entry are separate records, joined by “and”; a condition that tells them apart may be missing. Equal values may be shown once. Inconclusive results and toxic doses are left out.

Consider `Oc1ccccc1/C=N/Nc1ccc2ccccc2n1`, for which the T/C (dose: 25.0 mg/kg/injection, schedule: Q04DX003 (ip), vehicle: saline) was 96 % of control; the T/C (dose: 50.0 mg/kg/injection, schedule: Q04DX003 (ip), vehicle: saline) is 95 % of control; the T/C (dose: 100.0 mg/kg/injection, schedule: Q04DX003 (ip), vehicle: saline) was 102 % of control; the T/C (dose: 200.0 mg/kg/injection, schedule: Q04DX003 (ip), vehicle: saline) was 93 % of control.

Regarding `O=C(O)c1cc2ccccc2c2c1C(=O)c1ccccc1-2`, the T/C runs as follows: under setting [1], 90 % of control; under setting [2], 95 % of control; under setting [3], 91 % of control.

For `COc1cc(N)ccc1Nc1c2ccccc2nc2ccccc12`, the T/C (dose: 12.5 mg/kg/injection, schedule: Q04DX002 (ip), vehicle: distilled water + Tween-80) is 117 % of control; the T/C (dose: 50.0 mg/kg/injection, schedule: Q04DX002 (ip), vehicle: distilled water + Tween-80) is 165 % of control; the T/C (dose: 100.0 mg/kg/injection, schedule: Q04DX002 (ip), vehicle: distilled water + Tween-80) was 166 % of control and 185 % of control; the T/C (dose: 200.0 mg/kg/injection, schedule: Q04DX002 (ip), vehicle: distilled water + Tween-80) was 194 % of control.

Consider `COc1ccc(/C=C/C2C(C#N)(C#N)C(OC)(OC)C2(OC)OC)cc1` (stereo not drawn), for which the T/C reads like this: (dose: 60.0 mg/kg/injection, schedule: Q01DX005 (ip), vehicle: Klucel (hydroxypropylcellulose) (HPC)) 101 % of control; (dose: 120.0 mg/kg/injection, schedule: Q01DX005 (ip), vehicle: Klucel (hydroxypropylcellulose) (HPC)) 102 % of control; (dose: 240.0 mg/kg/injection, schedule: Q01DX005 (ip), vehicle: Klucel (hydroxypropylcellulose) (HPC)) 98 % of control.

As to `O=[N+]([O-])c1ccc(Nc2ccc(Cl)cc2)c2nonc12`, the T/C runs as follows: under setting [4], 100 % of control; under setting [5], 103 % of control; under setting [6], 97 % of control.

`CC(C)(C)N=C(NC#N)Nc1cccnc1Cl`: the T/C was 103 % of control (dose: 100.0 mg/kg/injection, schedule: Q04DX002 (ip), vehicle: saline with Tween-80); 94 % of control (dose: 200.0 mg/kg/injection, schedule: Q04DX002 (ip), vehicle: saline with Tween-80); 92 % of control (dose: 400.0 mg/kg/injection, schedule: Q04DX002 (ip), vehicle: saline with Tween-80).

Turning to `CSC1=Nc2cc3c(cc2C(=O)N2C[C@H](O)CC12)OCO3` (stereo partly drawn), the T/C by setting is: under setting [4], 108 % of control; under setting [5], 102 % of control; under setting [6], 94 % of control.

On to `CN1COC(OC2OCN(C)CC2(C)C)C(C)(C)C1` (stereo not drawn), for which, under setting [2], the T/C was 160 % of control.

On to `C=C1C(=O)N2c3ccccc3C(C)(C)C2(S)C(=O)N1C` (stereo not drawn), for which the T/C is 102 % of control under setting [7]; 100 % of control (dose: 100.0 mg/kg/injection, schedule: Q01DX009 (ip), vehicle: saline); 100 % of control (dose: 200.0 mg/kg/injection, schedule: Q01DX009 (ip), vehicle: saline).

In the case of `O=c1oc(-c2cccc(F)c2)ns1`, the T/C is 115 % of control (dose: 100.0 mg/kg/injection, schedule: Q01DX009 (ip), vehicle: Klucel (hydroxypropylcellulose) (HPC)); 116 % of control (dose: 200.0 mg/kg/injection, schedule: Q01DX009 (ip), vehicle: Klucel (hydroxypropylcellulose) (HPC)); 115 % of control (dose: 400.0 mg/kg/injection, schedule: Q01DX009 (ip), vehicle: Klucel (hydroxypropylcellulose) (HPC)).

Turning to `CCn1cnc2sc3c(c2c1=O)CCCC3`, the T/C under setting [8] was 97 % of control and the T/C under setting [9] is 98 % of control.

`ON1c2ccc3ccccc3c2C=CC1(c1ccccc1)c1ccccc1`: the T/C by setting is: under setting [4], 103 % of control; under setting [5], 103 % of control; under setting [6], 97 % of control.

As for `COc1ccc(C(c2cc3c(cc2O)OCO3)N2CCN(C(c3ccc(OC)c(O)c3)c3cc4c(cc3O)OCO4)CC2)cc1O` (stereo not drawn), the T/C under setting [8] is 96 % of control, the T/C under setting [9] was 101 % of control and the T/C under setting [10] is 112 % of control.

On to `N#CC(C(=O)O)C1(c2ccccc2)CCCCC1` (stereo not drawn), for which the T/C is, setting by setting: under setting [1], 101 % of control; under setting [2], 93 % of control; under setting [3], 105 % of control.

Regarding `CCOC(=O)C(C)(OCC)OCC`, the T/C under setting [11] was 101 % of control; the T/C under setting [1] is 98 % of control; the T/C under setting [2] is 98 % of control; the T/C under setting [3] is 98 % of control; the T/C (dose: 400.0 mg/kg/injection, schedule: Q01DX009 (ip), vehicle: saline with Tween-80) was 100 % of control.

With `C=CCn1c2c(c3ccccc3c1=O)C(=O)c1ccccc1-2`, the T/C (dose: 6.25 mg/kg/injection, schedule: Q01DX005 (ip), vehicle: saline with Tween-80) is 97 % of control; the T/C (dose: 12.5 mg/kg/injection, schedule: Q01DX005 (ip), vehicle: saline with Tween-80) is 99 % of control; the T/C (dose: 25.0 mg/kg/injection, schedule: Q01DX005 (ip), vehicle: saline with Tween-80) was 99 % of control; the T/C under setting [5] was 87 % of control.

In the case of `Cc1cc(-c2cc(C)nc(N)n2)nc(N)n1`, the T/C is 100 % of control (dose: 60.0 mg/kg/injection, schedule: Q01DX005 (ip), vehicle: saline); 100 % of control (dose: 120.0 mg/kg/injection, schedule: Q01DX005 (ip), vehicle: saline); 108 % of control (dose: 240.0 mg/kg/injection, schedule: Q01DX005 (ip), vehicle: saline).

As to `O=c1[nH]c2ccccc2c2ccccc12`, the T/C under setting [12] was 90 % of control; the T/C under setting [13] is 90 % of control; the T/C (dose: 400.0 mg/kg/injection, schedule: Q04DX003 (ip), vehicle: saline with Tween-80) is 90 % of control.

Turning to `CN(C)CC1CCC1N1c2ccccc2Sc2ccc(Cl)cc21` (stereo not drawn), the T/C was 105 % of control (dose: 50.0 mg/kg/injection, schedule: Q04DX003 (ip), vehicle: Klucel (hydroxypropylcellulose) (HPC)); 100 % of control (dose: 100.0 mg/kg/injection, schedule: Q04DX003 (ip), vehicle: Klucel (hydroxypropylcellulose) (HPC)); 98 % of control (dose: 200.0 mg/kg/injection, schedule: Q04DX003 (ip), vehicle: Klucel (hydroxypropylcellulose) (HPC)).

Consider `CCCCCCCCCCCCCCCCN1C(=O)/C(=C\c2ccc(O)cc2)SC1=Nc1ccccc1`, for which the T/C is, setting by setting: (dose: 12.5 mg/kg/injection, schedule: Q01DX009 (ip), vehicle: saline) 90 % of control; (dose: 25.0 mg/kg/injection, schedule: Q01DX009 (ip), vehicle: saline) 88 % of control; under setting [1], 95 % of control; under setting [7], 91 % of control; under setting [3], 92 % of control.

In the case of `CC1(C)c2ccccc2Nc2ccccc21`, the T/C was 100 % of control under setting [12] and 91 % of control under setting [13].

Take `COc1ccc(Br)cc1/C=C/[N+](=O)[O-]`: the T/C reads like this: (dose: 12.5 mg/kg/injection, schedule: Q01DX009 (ip), vehicle: saline with Tween-80) 113 % of control; under setting [11], 122 % of control.

`CC(NCCCCNC(C)C(=O)O)C(=O)O` (stereo not drawn): the T/C by setting is: (dose: 50.0 mg/kg/injection, schedule: Q01DX005 (ip), vehicle: saline) 94 % of control; (dose: 100.0 mg/kg/injection, schedule: Q01DX005 (ip), vehicle: saline) 103 % of control; (dose: 200.0 mg/kg/injection, schedule: Q01DX005 (ip), vehicle: saline) 102 % of control.

In the case of `Cc1nc2ncn(-c3ccccc3)c2c(=O)n1Cc1ccco1`, the T/C (dose: 50.0 mg/kg/injection, schedule: Q01DX005 (ip), vehicle: Klucel (hydroxypropylcellulose) (HPC)) is 103 % of control; the T/C (dose: 100.0 mg/kg/injection, schedule: Q01DX005 (ip), vehicle: Klucel (hydroxypropylcellulose) (HPC)) is 103 % of control; the T/C (dose: 200.0 mg/kg/injection, schedule: Q01DX005 (ip), vehicle: Klucel (hydroxypropylcellulose) (HPC)) was 95 % of control.

Turning to `COc1ccc(/C=N/NC(=O)C(O)c2ccccc2)cc1` (stereo not drawn), the T/C is 99 % of control under setting [8], 90 % of control under setting [9] and 91 % of control under setting [10].

On to `Cn1c2ccccc2c(=O)c2cc(NC(=O)/C=C/C(=O)Nc3ccc4c(c3)c(=O)c3ccccc3n4C)ccc21`, for which the T/C is, setting by setting: under setting [4], 102 % of control; under setting [5], 105 % of control; under setting [6], 106 % of control.

As to `Cc1cc(N=Cc2c(CO)cnc(C)c2O)c(N=Cc2c(CO)cnc(C)c2O)cc1C.[Zn]`, the T/C reads like this: under setting [4], 100 % of control; under setting [5], 99 % of control; under setting [6], 100 % of control.

(Values after PubChem BioAssay AID330 (DTP/NCI, 2004).)
